# According to patent publication US20190030009A1, “COMPOUNDS AND COMPOSITIONS FOR THE TREATMENT OF CRYPTOSPORIDIOSIS” (Novartis AG, priority 2016, published 2019):
# pEC50, pIC50: −log10 of the molar value.
# Legend:
# [1] = system: Cryptosporidium parvum; assay: Cytopathic effect (CPE) based assay, C. parvum infected HCT-8 cells; conditions: HCT-8 host cell viability (CellTiter-Glo), 48 hours treatment, read-out: Cp CPE EC50
# Description: Human ileocecal colorectal adenocarcinoma cells (HCT-8 [HRT-18] ATCC, CCL-34) were maintained in T-175 flasks (Corning, 431080) in complete growth medium (RPMI-1640 medium (Gibco, 11875) supplemented with 10% heat-inactivated horse serum (Gibco, 26050), 1×MEM non-essential amino acids (Gibco, 11140), 10 mM HEPES (Gibco, 15630), 100 units/mL penicillin, and 100 units/mL streptomycin) at 37° C. and 5% CO2 in a humidified incubator. Cultures were passaged twice weekly using 10 mL of 1×Phosphate-Buffered Saline (PBS) without Ca^2+ and Mg^2+ (Gibco, 20012) for washing and 3-5 mL per T-175 flask of TrypLE Express Enzyme (Gibco, 12604) for dissociation of adherent cells.
# Cryptosporidium parvum oocysts purchased from the Sterling Laboratory, University of Arizona (Iowa isolate) were purified from infected calf feces using discontinuous sucrose and cesium chloride centrifugation gradients and stored in PBS solution containing 0.01% Tween 20, 100 units/mL penicillin and 100 units/mL gentamicin.
# Excystation and infection protocols were developed following established methods with some modifications (Gut & Nelson, 1999, Upton et aL, 1995, Bessoff et aL, 2013). Briefly, oocysts were primed in 1 mL of 10 mM hydrochloric acid in 1× Hank's Balanced Salt Solution (HBSS) (Gibco, 14025) for 10 minutes with agitation at 1000 rpm, 37° C. on an Eppendorf thermomixer, then washed twice with 1 mL of room temperature non-acidic 1× HBSS by centrifugation at 13,000 rpm for 3 minutes at 25° C. Primed oocysts were further excysted at a concentration of 1×10^6 oocysts/μL in parasite infection medium consisting of a pre-warmed and pre-gassed 1:1 formulation of Leibovitz's L-15 medium (Gibco, 11415) and UltraCULTURE medium (Lonza, 12-725F) supplemented with 2 mM sodium taurocholate (Sigma, 86339-1), 10% heat-inactivated horse serum, and 200 μM L-ascorbic acid (Sigma, 95210) at 25° C. for 10 minutes. HCT-8 monolayer cells were infected with excysted cryptosporidium at a specified multiplicity of infection (MOI). All dilutions for subsequent assays were performed in parasite infection medium without sodium taurocholate. Pre-excysted oocysts were enumerated microscopically using a C-Chip disposable hemocytometer (NanoEnTek, DHC-N01).
# Compound powders were dissolved in neat DMSO (Fisher, D4121) to 10 mM and stored at 4° C. prior to dilution into source plates. Dilutions were carried out using a Microlab STAR liquid handler (Hamilton) to obtain compound source plates containing the ten-point or eight-point three fold dilutions starting from 10 mM in duplicates. Source plates were stored at 4° C. prior to spotting into assay plates. Before administration, all compound source plates were equilibrated to room temperature. A specified volume of compounds from source plate were spotted to assay plate using an Echo Acoustic liquid handler (LABCYTE, 550) so that the final DMSO concentration was less than 0.5%. Each assay plate a specified number of DMSO-treated negative control wells and a well-studied potent active compound at 100 nM as positive control. As a quality control, all positive and negative-control wells were used to calculate a Z′-value and signal to noise ratio (S:N) for each plate.
# Cryptosporidium spp are obligate-intracellular parasites that infect intestinal epithelial cells and the host cell is killed upon parasite egress. […] The loss of epithelial cells is due to both rapid parasite invasion/multiplication/egress and also pro-inflammatory immune response (Adams et al., 1994, Griffiths et al., 1994). We have observed a consistent cytopathic effect (CPE) in HCT-8 cells with C. spp infection the loss of viability of the host cells using CellTiter-Glo reagent.
# Confluent HCT-8 cells in T-175 flasks were directly infected with excysted oocysts at an MOI (host to parasite) of 1:2 for C. parvum and 1:4 for C. hominis. The number of host-cells is determined using a NucleoCounter (Chemometec, NC-100) in a control flask. […]
# [2] = molecular target: C. parvum PI(4)K (Cryptosporidium parvum, UniProt Q5CVD3); assay: CpPI(4)K enzymatic assay (Transcreener ADP2 FP); format: biochemical
# Source text: The full-length coding sequence of C. parvum PI(4)K (cgd8_4500, 1114 amino acids) was codon-optimized for baculovirus expression, synthesized and cloned into pFastBac-HTb (Invitrogen 10584-027) in frame with the amino-terminal polyhistidine tag using the BamHI and Hindlll restriction sites. Recombinant pFastBacHTb-CpPI(4)K bacmid clones were generated by site-specific transposition in E. coli DH10Bac (Invitrogen 10361-012). The bacmid sequence was confirmed by direct DNA sequencing to confirm a lack of mutations across the whole gene. The subsequent steps for bacmid isolation, transfection and selection of the recombinant viruses were performed according to the manufacturer's protocol (Bac-to-Bac system #10359, Invitrogen).
# SF9 cells, cultured in SF-900 III serum-free medium, were transfected with recombinant baculovirus at 1/200 (v/v) and incubated at 27° C. for 72 h. The pellets were collected after centrifugation and re-suspended in cell lysis buffer (20 mM Tris-HCl, pH 7.5, 300 mM NaCl, 1 mM DTT, 20 mM imidazole, 0.01% Triton X-100 and 1× complete protease inhibitor cocktail without EDTA (Roche Diagnostics 04693116001)). The cell suspension was lysed by sonication and the clarified supernatant was loaded onto a 1 ml HisTrap affinity column (GE Healthcare) pre-equilibrated with buffer A (20 mM Tris-HCl, pH 7.5, 300 mM NaCl, 1 mM DTT, 20 mM Imidazole, and 1× complete protease inhibitor cocktail without EDTA). The column was washed with buffer B (buffer A containing 45 mM imidazole) and the bound protein of interest was eluted with buffer C (buffer A with 90 mM imidazole). The fractions containing CpPI(4)K were pooled, concentrated using Amicon Ultra-15 and purified by a gel-filtration column (Hi-Load 26/60 Superdex 200, GE Healthcare) equilibrated with 20 mM Tris, pH 7.5, 300 mM NaCl, 1 mM DTT and 1× protease inhibitor cocktail without EDTA. The concentrations of the purified protein (Mw 132.39 kda) was determined by using the protein molar extinction coefficient (ε280 nm=133,810 M^−1 cm^−1). Aliquots were flash frozen in liquid nitrogen and immediately stored at −80° C.
# The CpPI(4)K enzymatic assay was performed as described earlier with a some modifications (McNamara et al., 2013). Briefly, L-α-phosphatidylinositol (Avanti Polar Lipid 840046), dissolved in 3% n-octylglucoside (Roche Diagnostics 10634425001), was used as the lipid substrate for the PI(4)K activity assay. CpPI(4)K was assayed using Transcreener ADP2 FP detection kit (BellBrook 3010) in a black, solid 384-well plate (Corning 3575). The final assay volume was 10 μl and contained 3 nM of the respective CpPI(4)K construct in 10 mM Tris, pH 7.5, 1 mM DTT, 3 μM ATP, 5 mM Mn2+, 0.05% Triton X-100 and 10 μM phosphatidylinositol/octylglucoside. The enzyme reaction was performed for 50 minutes at room temperature and was stopped by adding 10 μl of detection mix containing 1× stop buffer (50 mM HEPES, pH7.5, 400 mM NaCl, 20 mM EDTA, and 0.02% Brij-35), 2 nM AMP Alexa Fluor 633 tracer, and 20 μg ml^−1 ADP antibody. Fluorescence polarization measurements were performed on the Infinite M1000 plate reader (Tecan) with λex=635 nm and λem=680 nm (20-nm bandwidth). IC50 values were calculated using Graphpad Prism software.
# The inhibitory concentration (IC50) of selected compounds on the C. parvPI(4)K activity is provided in the third column [Cp_PI4K_enz IC50 (μM)] of Table II.
# [3] = Cytotoxicity against HepG2; format: cell-based; conditions: human, HepG2 cells (ATCC HB-8065), 5 days exposure
# Description: Cytotoxicity against HepG2 (ATCC# HB-8065), a human liver cancer cell line, was determined as previously described earlier (Manjunatha et al., 2015). Briefly, cells were seeded at a density of 10^5 cells per well, incubated at 37° C. for 24 h and exposed to two-fold serially-diluted compounds for 5 days. Cell viability was monitored using the Cell Proliferation Kit II (Invitrogen). The cytotoxicity values of selected compounds are reported in the fifth column [HepG2 CC50 (μM)] of Table II.
# Sequence of C. parvum PI(4)K (Q5CVD3 entry or part of it): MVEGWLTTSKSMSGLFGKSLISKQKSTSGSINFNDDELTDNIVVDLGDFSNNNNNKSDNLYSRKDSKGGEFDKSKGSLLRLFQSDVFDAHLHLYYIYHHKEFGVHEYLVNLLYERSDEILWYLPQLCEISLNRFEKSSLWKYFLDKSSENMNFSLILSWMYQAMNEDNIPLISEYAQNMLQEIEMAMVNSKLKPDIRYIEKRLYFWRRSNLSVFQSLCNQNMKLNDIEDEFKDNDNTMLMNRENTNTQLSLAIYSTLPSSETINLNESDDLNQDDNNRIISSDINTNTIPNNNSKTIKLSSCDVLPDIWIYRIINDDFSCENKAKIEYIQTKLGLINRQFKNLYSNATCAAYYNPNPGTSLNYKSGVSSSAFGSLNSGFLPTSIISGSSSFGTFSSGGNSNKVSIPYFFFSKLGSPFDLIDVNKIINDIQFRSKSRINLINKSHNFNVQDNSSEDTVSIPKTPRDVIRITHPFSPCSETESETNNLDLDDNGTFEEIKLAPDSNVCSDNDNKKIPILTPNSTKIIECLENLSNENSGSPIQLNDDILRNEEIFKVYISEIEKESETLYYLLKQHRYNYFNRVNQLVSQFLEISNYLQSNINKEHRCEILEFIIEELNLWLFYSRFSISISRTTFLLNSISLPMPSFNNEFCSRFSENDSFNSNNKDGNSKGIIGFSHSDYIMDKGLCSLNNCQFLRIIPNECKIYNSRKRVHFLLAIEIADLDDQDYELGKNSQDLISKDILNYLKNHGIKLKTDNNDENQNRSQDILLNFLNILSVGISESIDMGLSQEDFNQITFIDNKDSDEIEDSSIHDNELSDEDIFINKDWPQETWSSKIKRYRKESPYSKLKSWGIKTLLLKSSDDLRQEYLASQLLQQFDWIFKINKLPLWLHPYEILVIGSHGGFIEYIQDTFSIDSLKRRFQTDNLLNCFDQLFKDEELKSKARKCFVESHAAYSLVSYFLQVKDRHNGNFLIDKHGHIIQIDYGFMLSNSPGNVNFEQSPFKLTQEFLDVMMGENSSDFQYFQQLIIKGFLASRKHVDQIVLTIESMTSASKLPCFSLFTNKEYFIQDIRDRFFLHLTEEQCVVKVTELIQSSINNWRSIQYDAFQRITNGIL
Structure (SMILES),pEC50 [1],pIC50 [2],CC50 at 5 days [3]
CC(C)[C@H](N)C(=O)Nc1ccc(-c2cnn3ccc(C(=O)N(C)c4ccc(C#N)cc4)cc23)cc1 [Example 45],6.48,6.62,
CN(C(=O)c1ccn2ncc(-c3ccc(C(N)=O)cc3)c2c1)c1ccc(C#N)cc1 [Example 19],7.43,8.52,5910 nM
CNC(=O)c1ccc(-c2cnn3ccc(C(=O)N(CC4CC4)c4ccc(C#N)cn4)cc23)cc1 [Example 117],6.30,8.15,4330 nM
CNC(=O)c1ccc(-c2cnn3ccc(C(=O)N(C)c4ccc(C#N)cc4)cc23)cn1 [Example 97],6.62,7.14,31100 nM
CN(C(=O)c1ccn2ncc(-c3ccc(N)nc3)c2c1)c1ccc(C#N)cn1 [Example 54],6.49,7.13,> 50000 nM
CN(C(=O)c1ccn2ncc(-c3ccc(C(N)=O)cn3)c2c1)c1ccc(C#N)cc1 [Example 27],6.09,6.85,
CNC(=O)c1ccc(-c2cnn3ccc(C(=O)N(c4ccc(C(N)=O)cn4)C4CC4)cc23)cc1 [Example 129],< 4.70,,> 50000 nM
CN(C(=O)c1ccn2ncc(-c3ccc4c(cnn4C)c3)c2c1)c1ccc(C#N)cc1 [Example 17],7.24,,2510 nM
CNC(=O)c1ccc(-c2cnn3ccc(C(=O)N(c4ccc(C(F)(F)F)cn4)C4CC4)cc23)cc1 [Example 132],7.05,,17300 nM
CNC(=O)c1ccc(-c2cnn3ccc(C(=O)N(CCO)c4ccc(C#N)cc4)cc23)cc1 [Example 110],< 4.70,,23800 nM
CNC(=O)c1ccc(-c2cnn3ccc(C(=O)N(c4ccc(C)cn4)C4CC4)cc23)cc1 [Example 136],6.37,,6320 nM
N#Cc1ccc(N(C(=O)c2ccn3ncc(-c4ccc(C(N)=O)cc4)c3c2)C2CC2)cc1 [Example 134],7.38,,7240 nM
CNC(=O)c1ccc(-c2cnn3ccc(C(=O)N(c4ccc(F)cn4)C(C)C)cc23)cn1 [Example 156],4.81,,> 50000 nM
CN(C)C(=O)c1cc(-c2cnn3ccc(C(=O)N(C)c4ccc(C#N)cn4)cc23)cnc1N [Example 87],6.38,,> 50000 nM
CCN(C(=O)c1ccn2ncc(-c3ccc(S(=O)(=O)NC)cc3)c2c1)c1ccc(C#N)cn1 [Example 140],4.99,,26100 nM
N#Cc1ccc(N(C(=O)c2ccn3ncc(-c4ccc(C(N)=O)nc4)c3c2)C2CC2)cc1 [Example 138],6.31,,8100 nM
N#Cc1ccc(N(C2CC2)S(=O)(=O)c2ccn3ncc(-c4ccc(C(N)=O)cc4)c3c2)nc1 [Example 165],6.22,,6370 nM
CN(C(=O)c1ccn2ncc(-c3ccc(C(=O)O)cc3)c2c1)c1ccc(C#N)cn1 [Example 101],4.82,,> 50000 nM
CNC(=O)c1ccc(-c2cnn3ccc(C(=O)N(c4ccc(F)c(F)c4)C4CC4)cc23)cc1 [Example 130],6.63,,> 50000 nM
NC(=O)c1ccc(-c2cnn3ccc(C(=O)N4CCOc5cc(F)ccc54)cc23)cc1 [Example 71],6.24,,1820 nM
CN(C)CCNC(=O)c1ccc(-c2cnn3ccc(C(=O)N(C)c4ccc(C#N)cn4)cc23)cc1 [Example 115],5.52,,2700 nM
CN(C(=O)c1ccn2ncc(-c3ccc(C(N)=O)cc3)c2c1)C1CCC(C#N)CC1 (stereo not drawn) [Example 82],< 4.70,,> 50000 nM
CN(C(=O)c1ccn2ncc(-c3ccc(C(=O)NCCO)cc3)c2c1)c1ccc(C#N)cn1 [Example 102],6.40,,38500 nM
CNC(=O)c1ccc(-c2cnn3ccc(C(=O)N(C)c4ccc(F)cc4)cc23)cc1 [Example 64],6.84,,4840 nM
CN(C(=O)c1ccn2ncc(-c3cnc4[nH]ccc4c3)c2c1)c1ccc(C#N)cn1 [Example 53],6.26,7.33,
N#Cc1ccc(N(C(=O)c2ccn3ncc(-c4ccc(C(N)=O)cn4)c3c2)C2CC2)cc1 [Example 142],6.42,,18300 nM
CNC(=O)c1ccc(-c2cnn3ccc(C(=O)N(C)c4ccc(OCCN)cn4)cc23)cc1 [Example 111],< 4.70,,> 50000 nM
NC(=O)c1ccc(-c2cnn3ccc(C(=O)N(c4ccc(F)c(F)c4)C4CC4)cc23)cc1 [Example 135],6.55,,31100 nM
